Measurements taken from ChEMBL document CHEMBL1201862, “PubChem BioAssay data set” (2004).
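Protocol summary: plate cells (96-well), add compound at 5 concentrations, incubate 48 h, interpolate endpoints linearly. GI50 = concentration required for 50% inhibition of growth.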 Activity calls are given as the source filed them. Cut-off read from the data, not from the text of the source: active = GI50 up to about 1.1 µM and inactive = higher.

Tests used:
Assay in all cases: NCI anticancer screen, dose series, 48 h
[1] = test system: ACHN
[2] = test system: SK-MEL-2
[3] = test system: SN12C
[4] = test system: SF-295
[5] = test system: UACC-62
[6] = test system: OVCAR-4
[7] = test system: RPMI-8226
[8] = test system: SK-MEL-28
[9] = test system: SW-620
[10] = test system: MOLT-4
[11] = test system: M14
[12] = test system: UACC-257
[13] = test system: SNB-19
[14] = test system: 786-0
[15] = test system: SR

Row | SMILES | GI50 [1] | GI50 [2] | GI50 [3] | GI50 [4] | GI50 [5] | GI50 [6] | GI50 [7] | GI50 [8] | GI50 [9] | GI50 [10] | GI50 [11] | GI50 [12] | GI50 [13] | GI50 [14] | GI50 [15]
1 | COc1cc(/C=C2/C(=O)N(C(=O)c3ccc(Cl)cc3)N=C2C)cc(OC)c1OC | > 100 µM (inactive) | > 100 µM (inactive) | > 100 µM (inactive) | > 100 µM (inactive) | > 100 µM (inactive) | > 100 µM (inactive) | > 100 µM (inactive) | > 100 µM (inactive) | > 100 µM (inactive) | > 100 µM (inactive) | > 100 µM (inactive) | > 100 µM (inactive) | > 100 µM (inactive) | > 100 µM (inactive) | –
2 | CC1=CC2=C(C)C3(CC3)[C@@](C)(O)C(=O)C2=C1 | 0.176 µM (active) | 0.191 µM (active) | 0.231 µM (active) | 0.223 µM (active) | 0.21 µM (active) | 0.174 µM (active) | > 1 µM (active) | 0.194 µM (active) | > 1 µM (active) | > 1 µM (active) | 0.171 µM (active) | 0.237 µM (active) | 0.243 µM (active) | 0.217 µM (active) | > 1 µM (active)
3 | COc1cc(/C=C(\C)c2ccc3c(c2)OCO3)cc(OC)c1OC | 10.3 µM (inactive) | 23.4 µM (inactive) | 26.2 µM (inactive) | 25.2 µM (inactive) | – | 32.5 µM (inactive) | – | 41.1 µM (inactive) | 19.1 µM (inactive) | 16.7 µM (inactive) | 36.7 µM (inactive) | 29.2 µM (inactive) | 50.7 µM (inactive) | 21.3 µM (inactive) | 19.3 µM (inactive)
4 | O=C1OC2C(O)COC2(O)C1(O)Cc1c[nH]c2ccccc12.O=C1OC2C(O)COC2(OCc2c[nH]c3ccccc23)C1O (stereo not drawn) | – | > 100 µM (inactive) | > 100 µM (inactive) | > 100 µM (inactive) | > 100 µM (inactive) | > 100 µM (inactive) | > 100 µM (inactive) | – | > 100 µM (inactive) | > 100 µM (inactive) | > 100 µM (inactive) | > 100 µM (inactive) | > 100 µM (inactive) | > 100 µM (inactive) | > 100 µM (inactive)
5 | CCc1cccc(C)c1NC(=O)CC1C(=O)Nc2ccccc2S1(=O)=O (stereo not drawn) | 18.6 µM (inactive) | 21.1 µM (inactive) | 20.8 µM (inactive) | 26.2 µM (inactive) | 15.8 µM (inactive) | 14.9 µM (inactive) | 13.9 µM (inactive) | 18.5 µM (inactive) | 15.2 µM (inactive) | 14.1 µM (inactive) | 18.9 µM (inactive) | 18.9 µM (inactive) | 27.5 µM (inactive) | 15.7 µM (inactive) | 5.65 µM (inactive)
6 | COC(=O)CCC(NC(=S)N/N=C(\C)c1cccs1)C(=O)OC (stereo not drawn) | > 100 µM (inactive) | > 100 µM (inactive) | > 100 µM (inactive) | > 100 µM (inactive) | > 100 µM (inactive) | > 100 µM (inactive) | – | > 100 µM (inactive) | > 100 µM (inactive) | – | > 100 µM (inactive) | > 100 µM (inactive) | > 100 µM (inactive) | > 100 µM (inactive) | –
7 | Cc1nc2ccccc2c(=O)n1/N=C(\N=N\c1ccccc1Cl)c1ccccc1Cl | 50.5 µM (inactive) | – | 38.8 µM (inactive) | – | 58.9 µM (inactive) | – | 30.1 µM (inactive) | > 100 µM (inactive) | > 100 µM (inactive) | 22.1 µM (inactive) | > 100 µM (inactive) | – | – | 48 µM (inactive) | –
8 | Cc1nc2c(s/c(=N\N)n2-c2ccccc2)c(=O)[nH]1 | > 100 µM (inactive) | > 100 µM (inactive) | > 100 µM (inactive) | > 100 µM (inactive) | > 100 µM (inactive) | > 100 µM (inactive) | > 100 µM (inactive) | > 100 µM (inactive) | > 100 µM (inactive) | > 100 µM (inactive) | > 100 µM (inactive) | > 100 µM (inactive) | > 100 µM (inactive) | > 100 µM (inactive) | > 100 µM (inactive)
9 | O=C(NO)C(=O)Nc1ccc(Cl)cc1[N+](=O)[O-] | > 100 µM (inactive) | > 100 µM (inactive) | > 100 µM (inactive) | > 100 µM (inactive) | > 100 µM (inactive) | > 100 µM (inactive) | > 100 µM (inactive) | > 100 µM (inactive) | > 100 µM (inactive) | > 100 µM (inactive) | > 100 µM (inactive) | > 100 µM (inactive) | > 100 µM (inactive) | > 100 µM (inactive) | > 100 µM (inactive)
10 | CC(C)(O)[C@H](CCO)O[Si](c1ccccc1)(c1ccccc1)C(C)(C)C | 5.94 µM (inactive) | 15.1 µM (inactive) | 4.11 µM (inactive) | 6.35 µM (inactive) | 11.3 µM (inactive) | – | 10.4 µM (inactive) | 15.2 µM (inactive) | 12.8 µM (inactive) | 4.25 µM (inactive) | 12.2 µM (inactive) | 15.5 µM (inactive) | 6.01 µM (inactive) | – | 4.93 µM (inactive)
11 | NNc1nnc(-c2ccccc2)nc1Cc1ccccc1 | 4.04 µM (inactive) | 6.35 µM (inactive) | 5.79 µM (inactive) | – | 3.62 µM (inactive) | 9.14 µM (inactive) | – | 7.71 µM (inactive) | 5.13 µM (inactive) | 3.19 µM (inactive) | 8.57 µM (inactive) | – | 6.62 µM (inactive) | – | 4.43 µM (inactive)
12 | COc1ccc2[nH]c3c(C)c4cc[n+](COC(=O)c5ccccc5)cc4c(C)c3c2c1 | 0.101 µM (active) | – | 0.197 µM (active) | 0.184 µM (active) | 1.09 µM (active) | 0.168 µM (active) | 0.144 µM (active) | 1.31 µM (inactive) | 0.0668 µM (active) | 0.0379 µM (active) | 0.641 µM (active) | 1.19 µM (inactive) | 0.713 µM (active) | 0.138 µM (active) | 0.0313 µM (active)
13 | O=c1c2ccccc2nc(-c2ccccc2)n1NC(=S)Nc1ccccc1 | > 100 µM (inactive) | > 100 µM (inactive) | > 100 µM (inactive) | > 100 µM (inactive) | > 100 µM (inactive) | > 100 µM (inactive) | > 100 µM (inactive) | 34.8 µM (inactive) | > 100 µM (inactive) | > 100 µM (inactive) | > 100 µM (inactive) | > 100 µM (inactive) | – | > 100 µM (inactive) | > 100 µM (inactive)
14 | Cn1c(=O)n(C2(C)C[Se]C2)c2ccccc21 | > 100 µM (inactive) | > 100 µM (inactive) | > 100 µM (inactive) | > 100 µM (inactive) | > 100 µM (inactive) | > 100 µM (inactive) | > 100 µM (inactive) | > 100 µM (inactive) | > 100 µM (inactive) | > 100 µM (inactive) | > 100 µM (inactive) | > 100 µM (inactive) | > 100 µM (inactive) | > 100 µM (inactive) | > 100 µM (inactive)
15 | Cc1cc2oc(-c3ccccc3)c(C)c(=O)c2c2c1OC(C)(C)S2 | > 100 µM (inactive) | > 100 µM (inactive) | > 100 µM (inactive) | > 100 µM (inactive) | > 100 µM (inactive) | > 100 µM (inactive) | 47 µM (inactive) | 60.7 µM (inactive) | > 100 µM (inactive) | 60.3 µM (inactive) | > 100 µM (inactive) | 63.7 µM (inactive) | > 100 µM (inactive) | > 100 µM (inactive) | 29.6 µM (inactive)
16 | COc1ccc(Nc2nc(C#N)c(N)s2)cc1 | 15.7 µM (inactive) | 33.4 µM (inactive) | 30.7 µM (inactive) | 29.2 µM (inactive) | 23.1 µM (inactive) | 83.2 µM (inactive) | 18.8 µM (inactive) | > 100 µM (inactive) | 46.1 µM (inactive) | > 10 µM (inactive) | 81.5 µM (inactive) | 17.1 µM (inactive) | 49 µM (inactive) | 64 µM (inactive) | –
17 | CC(C)(C)Sc1nnc(SC(C)(C)C)c2c(SC(C)(C)C)nnc(O)c12 | – | – | 10.2 µM (inactive) | 11.4 µM (inactive) | 9.91 µM (inactive) | 2.16 µM (inactive) | 2.8 µM (inactive) | – | 6.87 µM (inactive) | 3.37 µM (inactive) | 14.8 µM (inactive) | 13.6 µM (inactive) | 11.6 µM (inactive) | 10.1 µM (inactive) | 4.14 µM (inactive)
18 | OC12c3ccccc3C1CCCCCCCCCC21OCCO1 (stereo not drawn) | > 100 µM (inactive) | > 100 µM (inactive) | > 100 µM (inactive) | > 100 µM (inactive) | > 100 µM (inactive) | > 100 µM (inactive) | > 100 µM (inactive) | > 100 µM (inactive) | > 100 µM (inactive) | > 100 µM (inactive) | > 100 µM (inactive) | > 100 µM (inactive) | > 100 µM (inactive) | > 100 µM (inactive) | –
19 | Nc1nc(N)c2ncn(CC(CO)CC(c3ccccc3)P(=O)(O)O)c2n1 (stereo not drawn) | > 100 µM (inactive) | > 100 µM (inactive) | > 100 µM (inactive) | > 100 µM (inactive) | > 100 µM (inactive) | – | > 100 µM (inactive) | > 100 µM (inactive) | > 100 µM (inactive) | > 100 µM (inactive) | 2.43 µM (inactive) | > 100 µM (inactive) | > 100 µM (inactive) | – | –
20 | CCOC(=O)C(C(=O)OCC)P(=S)(S)c1ccccc1 (stereo not drawn) | > 100 µM (inactive) | > 100 µM (inactive) | > 100 µM (inactive) | > 100 µM (inactive) | > 100 µM (inactive) | > 100 µM (inactive) | – | > 100 µM (inactive) | > 100 µM (inactive) | > 100 µM (inactive) | – | > 100 µM (inactive) | > 100 µM (inactive) | > 100 µM (inactive) | > 100 µM (inactive)
